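Five concentrations, 48 hours, 96-well plates. The concentration for full growth arrest is given as TGI.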
Key:
Test in all cases: DTP human tumour cell line panel, 48 h
[1] = tested on: 786-0 renal
[2] = tested on: HCT-15 colon
[3] = tested on: HOP-92 NSCLC
[4] = tested on: IGROV1 ovarian
[5] = tested on: KM12 colon
[6] = tested on: OVCAR-4 ovarian
[7] = tested on: OVCAR-8 ovarian
[8] = tested on: SF-268 CNS
[9] = tested on: SK-MEL-2 melanoma
[10] = tested on: SR leukemia
[11] = tested on: SW-620 colon
[12] = tested on: TK-10 renal
[13] = tested on: UO-31 renal
[14] = tested on: HCT-116 colon
[15] = tested on: M14 melanoma
[16] = tested on: NCI-H226 lung

CCOC(=O)/C1=C(\C)N(Cc2ccccc2)C(=O)c2ccccc2C(=O)c2c(OC(C)=O)ccc(OC(C)=O)c21
TGI [1]: > 100 µM | TGI [2]: > 100 µM | TGI [3]: 43.9 µM | TGI [4]: > 100 µM | TGI [5]: > 100 µM | TGI [6]: > 100 µM | TGI [7]: > 100 µM | TGI [8]: > 100 µM | TGI [9]: > 100 µM | TGI [10]: > 100 µM | TGI [11]: > 100 µM | TGI [12]: > 100 µM | TGI [13]: > 100 µM

CCOC(=O)CCCc1cc(=O)c2c(C)c3[nH]c4ccc(Cl)cc4c3c(C)c2[nH]1
TGI [1]: 38.2 µM | TGI [14]: > 100 µM | TGI [2]: > 100 µM | TGI [3]: 68.2 µM | TGI [4]: 86.4 µM | TGI [5]: > 100 µM | TGI [15]: > 100 µM | TGI [16]: 61 µM | TGI [6]: 59.1 µM | TGI [7]: 59.8 µM | TGI [8]: 54 µM | TGI [9]: 71.8 µM | TGI [10]: > 100 µM | TGI [11]: > 100 µM | TGI [12]: 48.8 µM | TGI [13]: 45.4 µM

O=S(=O)(N=[Se](=O)(c1ccccc1)c1ccccc1)c1ccccc1
TGI [1]: > 100 µM | TGI [14]: > 100 µM | TGI [2]: > 100 µM | TGI [3]: > 100 µM | TGI [4]: > 100 µM | TGI [5]: > 100 µM | TGI [15]: > 100 µM | TGI [16]: > 100 µM | TGI [6]: > 100 µM | TGI [7]: > 100 µM | TGI [8]: > 100 µM | TGI [9]: > 100 µM | TGI [10]: > 100 µM | TGI [11]: > 100 µM | TGI [12]: > 100 µM | TGI [13]: > 100 µM

C[Si](C)(C)CCOCN(C(=O)C1=CCC2(CC1)OCCO2)c1ccccc1I
TGI [1]: 39.8 µM | TGI [14]: 44.8 µM | TGI [2]: 41.6 µM | TGI [3]: 22.1 µM | TGI [4]: 42.9 µM | TGI [5]: 38.3 µM | TGI [15]: 39.5 µM | TGI [16]: 53.8 µM | TGI [6]: 45.5 µM | TGI [7]: > 100 µM | TGI [8]: 41.9 µM | TGI [9]: 32.6 µM | TGI [10]: > 100 µM | TGI [11]: 68 µM | TGI [12]: 63.5 µM | TGI [13]: 38.9 µM

CC(=O)O[C@H]1[C@@H](OC2CCCC2(c2ccccc2)c2ccccc2)O[N+]([O-])=C[C@@H]1c1ccccc1 (some centres undefined)
TGI [1]: 3.26 µM | TGI [14]: 10.5 µM | TGI [2]: 16.7 µM | TGI [3]: 18.2 µM | TGI [4]: 7.61 µM | TGI [5]: 23.4 µM | TGI [15]: 18.5 µM | TGI [16]: 80.2 µM | TGI [6]: 21.4 µM | TGI [7]: 6.53 µM | TGI [8]: 13.4 µM | TGI [9]: 24.1 µM | TGI [10]: > 20.3 µM | TGI [11]: 17.6 µM | TGI [12]: 23.2 µM | TGI [13]: 23.6 µM

COC(=O)c1ccccc1/C=C1\Cc2ccc3c(c2C1=O)CCC3
TGI [1]: > 100 µM | TGI [14]: > 100 µM | TGI [2]: > 100 µM | TGI [3]: > 100 µM | TGI [4]: > 100 µM | TGI [5]: > 100 µM | TGI [16]: > 100 µM | TGI [6]: > 100 µM | TGI [7]: > 100 µM | TGI [8]: > 100 µM | TGI [10]: > 100 µM | TGI [11]: > 100 µM | TGI [12]: > 100 µM | TGI [13]: > 100 µM

CN1C(=O)C(O)CC1c1ccccc1F (centres undefined)
TGI [1]: > 100 µM | TGI [14]: > 100 µM | TGI [2]: > 100 µM | TGI [3]: > 100 µM | TGI [4]: > 100 µM | TGI [5]: > 100 µM | TGI [15]: > 100 µM | TGI [16]: > 100 µM | TGI [6]: > 100 µM | TGI [7]: > 100 µM | TGI [9]: > 100 µM | TGI [10]: > 100 µM | TGI [11]: > 100 µM | TGI [13]: > 100 µM

O=C1NC(=S)NC(=O)C1=Cc1ccc([N+](=O)[O-])o1
TGI [1]: 36.5 µM | TGI [14]: 34 µM | TGI [2]: 32.6 µM | TGI [3]: 36.3 µM | TGI [4]: 60.1 µM | TGI [5]: > 100 µM | TGI [15]: 29.5 µM | TGI [16]: > 100 µM | TGI [6]: 31.1 µM | TGI [7]: 66.9 µM | TGI [8]: > 100 µM | TGI [9]: > 100 µM | TGI [10]: 43.9 µM | TGI [11]: 41.6 µM | TGI [12]: > 100 µM | TGI [13]: > 100 µM

C=CC(=O)C#Cc1cnc(OC)nc1OC
TGI [1]: 12.6 µM | TGI [14]: 26.1 µM | TGI [2]: 24.6 µM | TGI [3]: > 54.3 µM | TGI [4]: 53.6 µM | TGI [5]: 30 µM | TGI [15]: 37.7 µM | TGI [16]: > 92.7 µM | TGI [6]: 42.3 µM | TGI [7]: > 73.6 µM | TGI [8]: > 71.9 µM | TGI [9]: 59.7 µM | TGI [10]: 6.15 µM | TGI [11]: 23.4 µM | TGI [12]: 35.2 µM | TGI [13]: 33.5 µM

Cn1c(=O)oc2cc(C(O)CN3CCN(Cc4ccc5c(c4)OCO5)CC3)ccc21 (centres undefined)
TGI [1]: > 100 µM | TGI [14]: > 100 µM | TGI [2]: > 100 µM | TGI [3]: > 100 µM | TGI [4]: > 100 µM | TGI [5]: > 100 µM | TGI [15]: > 100 µM | TGI [16]: > 100 µM | TGI [6]: > 100 µM | TGI [7]: > 100 µM | TGI [8]: > 100 µM | TGI [10]: > 100 µM | TGI [11]: > 100 µM | TGI [12]: > 100 µM | TGI [13]: > 100 µM

C=C(CN(C)C)C(=O)c1ccccc1
TGI [1]: 13.5 µM | TGI [14]: 16.7 µM | TGI [2]: 28 µM | TGI [3]: 5.79 µM | TGI [4]: 36.3 µM | TGI [5]: 42.2 µM | TGI [15]: 7.54 µM | TGI [16]: 36 µM | TGI [6]: 39.3 µM | TGI [7]: 44.6 µM | TGI [8]: > 58.2 µM | TGI [9]: 32.9 µM | TGI [10]: > 60.5 µM | TGI [11]: 5.07 µM | TGI [12]: 13.4 µM | TGI [13]: 19.2 µM

NC(=S)NN=Cc1ccccc1OCc1cccc(COc2ccccc2C=NNC(N)=S)n1
TGI [1]: > 72 µM | TGI [14]: > 93.6 µM | TGI [2]: > 100 µM | TGI [3]: 14.3 µM | TGI [4]: 31.6 µM | TGI [5]: > 100 µM | TGI [15]: > 100 µM | TGI [16]: > 89.6 µM | TGI [6]: > 100 µM | TGI [7]: > 100 µM | TGI [8]: > 100 µM | TGI [9]: 33.7 µM | TGI [10]: > 100 µM | TGI [11]: > 100 µM | TGI [12]: 32.3 µM | TGI [13]: > 93.5 µM

COC(=O)NCCc1[nH]nc2c1C(=O)C=C(Nc1ccccc1OC)C2=O
TGI [1]: > 100 µM | TGI [14]: 38.1 µM | TGI [2]: > 100 µM | TGI [3]: > 100 µM | TGI [4]: 65.3 µM | TGI [5]: 64.4 µM | TGI [15]: 62.9 µM | TGI [6]: 57.7 µM | TGI [7]: 35.1 µM | TGI [8]: > 100 µM | TGI [9]: > 100 µM | TGI [10]: 86.1 µM | TGI [11]: 47.8 µM | TGI [12]: > 100 µM | TGI [13]: > 100 µM

C=C(Cl)[C@](Cl)(CBr)CC[C@@H](Br)C(C)(C)Cl
TGI [1]: 0.552 µM | TGI [14]: 1.38 µM | TGI [2]: 4.64 µM | TGI [3]: 1.1 µM | TGI [4]: 21.2 µM | TGI [5]: 2.26 µM | TGI [15]: 30.7 µM | TGI [16]: 32.8 µM | TGI [6]: 3.44 µM | TGI [7]: 2.86 µM | TGI [8]: 2.18 µM | TGI [10]: 25.5 µM | TGI [11]: 5.03 µM | TGI [12]: 3.4 µM | TGI [13]: 2.41 µM

COc1ccc(NCc2cccc3c(=O)c4ccc(Cl)cc4oc23)cc1
TGI [1]: > 100 µM | TGI [14]: > 100 µM | TGI [2]: > 100 µM | TGI [3]: > 100 µM | TGI [4]: > 100 µM | TGI [5]: > 100 µM | TGI [15]: > 100 µM | TGI [16]: > 100 µM | TGI [6]: > 100 µM | TGI [7]: > 100 µM | TGI [9]: > 100 µM | TGI [10]: > 100 µM | TGI [11]: > 100 µM | TGI [12]: > 100 µM | TGI [13]: > 100 µM

Source: PubChem BioAssay (NCI)
